Residue numbers refer to the chain shown, from its start.
How the values were obtained:
Format in all cases: cell-based, rabbit
D444E-EAAC1 = biological target: T1, D444E-EAAC1 (Oryctolagus cuniculus, UniProt P31597, D444E); experiment: Substrate-induced steady-state transport currents in oocytes expressing D444E; settings: 2 mM L-aspartate, other concentrations not given
T1 sequence (P31597 1-524 D444E): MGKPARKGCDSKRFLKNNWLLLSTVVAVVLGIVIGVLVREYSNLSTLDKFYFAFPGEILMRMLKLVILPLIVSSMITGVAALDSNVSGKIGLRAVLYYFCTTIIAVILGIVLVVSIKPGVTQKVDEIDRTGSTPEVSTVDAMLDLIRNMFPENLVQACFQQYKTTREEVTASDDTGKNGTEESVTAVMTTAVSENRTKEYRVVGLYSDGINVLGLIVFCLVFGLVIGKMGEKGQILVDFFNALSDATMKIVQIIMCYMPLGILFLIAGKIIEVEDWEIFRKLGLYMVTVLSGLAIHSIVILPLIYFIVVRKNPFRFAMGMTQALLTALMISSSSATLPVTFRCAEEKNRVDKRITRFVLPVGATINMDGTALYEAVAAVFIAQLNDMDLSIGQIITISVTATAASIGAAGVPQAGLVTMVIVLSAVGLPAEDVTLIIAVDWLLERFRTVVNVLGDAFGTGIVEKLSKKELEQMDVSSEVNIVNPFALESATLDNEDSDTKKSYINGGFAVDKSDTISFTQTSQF

WT-EAAC1 [1] = biological target: T2, WT-EAAC1 (Oryctolagus cuniculus, UniProt P31597); experiment: Substrate-induced steady-state transport currents in oocytes expressing WT; settings: 2 mM
T2 sequence (P31597 1-524): T1 sequence (P31597 1-524 D444E) with E444D

D444C mutant EAAC1 = biological target: T3, D444C mutant EAAC1 (Oryctolagus cuniculus, UniProt P31597, D444C)
T3 sequence (P31597 1-524 D444C): T1 sequence (P31597 1-524 D444E) with E444C

D444C-EAAC1 = biological target: T4, D444C-EAAC1 (Oryctolagus cuniculus, UniProt P31597, D444C); experiment: Substrate-induced steady-state transport currents in oocytes expressing D444C; settings: 2 mM L-aspartate (Fig. 1 C), other concentrations not given
T4 sequence (P31597 1-524 D444C): T1 sequence (P31597 1-524 D444E) with E444C

D444E mutant EAAC1 = biological target: T5, D444E mutant EAAC1 (Oryctolagus cuniculus, UniProt P31597, D444E)
T5 sequence (P31597 1-524 D444E): T1 sequence (P31597 1-524 D444E)

WT-EAAC1 [2] = biological target: T2, WT-EAAC1; settings: WT-EAAC1 in HeLa cells; 5 mM unlabeled succinate

Row | Structure (SMILES) | Induction of steady-state transport currents (D444E-EAAC1) | Induction of steady-state transport currents (WT-EAAC1 [1]) | Inhibition of D-[3H]-aspartate uptake (D444C mutant EAAC1) | Induction of steady-state transport currents (D444C-EAAC1) | Inhibition of D-[3H]-aspartate uptake (D444E mutant EAAC1) | Inhibition of D-[3H]-aspartate uptake (WT-EAAC1 [2])
1 | N[C@@H](CC(=O)O)C(=O)O [L-Aspartate, L-aspartate] | not observed | – | – | – | – | –
2 | O=C(O)CCC(=O)O [Succinate, succinate] | – | No steady-state transport currents | fully inhibited | unable to induce steady-state currents | much less sensitive | In contrast to WT

From article PMC2151622 (The Journal of General Physiology, 2007)
